Tested on: adults with moderate to severe atopic dermatitis
Experiment: Phase 2b dose-ranging study in atopic dermatitis (Example 8): efficacy (EASI, IGA-AD, PGIC)
Format: in vivo, human
Details: for patients achieving IGA0/1 responses at week 16: MI
Protocol: A 16-week, phase 2b, double-blinded, placebo-controlled, dose-finding study assessing efficacy and safety of orismilast modified-release (MR) tablets in adults with moderate-to-severe atopic dermatitis was carried out (NCT05469464). Patients were randomized (1:1:1:1) to orismilast 20, 30, 40 mg or placebo, twice daily. Randomized and dosed patients were included in the Intent-to-Treat Population (used for efficacy and safety). Missing data was handled using Multiple Imputation (MI) for the analysis of primary and secondary efficacy endpoints.
The exploratory objectives are to: • Evaluate pharmacokinetic (PK) and pharmacodynamic parameters relevant to AD • Evaluate the effect of orismilast on the pulmonary status and course of the disease in patients with asthma Primary Endpoint • Percentage change in Eczema Area and Severity Index (EASI) score from Baseline at Week 16. […]

O=C(Cc1c(Cl)c[n+]([O-])cc1Cl)c1ccc(OC(F)F)c2c1OC1(CCS(=O)(=O)CC1)O2 [orismilast, 2-(3,5-dichloro-1-oxidopyridin-1-ium-4-yl)-1-[7-(difluoromethoxy)-1′,1′-dioxospiro[1,3-benzodioxole-2,4′-thiane]-4-yl]ethanone]
patients achieving IGA0/1 responses at week 16 (20 mg BID (n=58)): 26.3%
patients achieving IGA0/1 responses at week 16 (30 mg BID (n=61)): 24.3%
mean percentage change in EASI at week 16 (30 mg BID, p>0,05): −52.2%
patients achieving IGA0/1 responses at week 16 (40 mg BID (n=59)): 30.9%
Patient Global Impression of Change of "much improved" or "very much improved" compared to placebo at week 16 (active arms (20, 30, 40 mg BID)): improved significantly

— patent US12409172B2, “Dosage regimen” (UNION therapeutics A/S, priority 2023, dated 2025)
